In data set [1] the test system is ASK1 protein in U87-TxR cells. Kind of data set: ASK1 protein expression by flow cytometry, U87-TxR. It is filed as cell-based, human. The note with it: 48 h; for ASK1 protein levels: 2 µM and 4 µM. The protocol:
Flow cytometry was used to assess TrxR1 and ASK1 protein expression in the U87 and U87-TxR cell lines. Cells were seeded and allowed to attach overnight before exposure to compounds 2 and 5 at final concentrations of 2 μM and 4 μM. After 48 h treatment, cells were collected by trypsinization, rinsed with PBS, and subsequently fixed in 4% PFA for 10 min at room temperature. For permeabilization, ice-cold absolute methanol was added, and the samples were maintained at −20 °C overnight. Following this step, cells were washed in PBS and incubated for 1 h in 0.5% BSA/PBS to block nonspecific binding. Pelleted cells were then resuspended in primary antibodies diluted in 0.5% BSA/PBS [(ASK1, 1:200 (ab45178, Abcam, Cambridge, UK); TrxR1, 1:500 (ab124954, Abcam, Cambridge, UK)] and incubated overnight at +4 °C. Cells were then washed in PBS and incubated for 1 h at room temperature in the dark with fluorescently labeled anti-rabbit IgG secondary antibody (Alexa Fluor 488, ab150097, Abcam, Cambridge, UK), diluted 1:1000 in 0.5% BSA/PBS. Following incubation, samples were washed, resuspended in cold PBS, and analyzed by flow cytometry. A minimum of 10,000 events per sample were acquired, and fluorescence was detected in a green fluorescence channel (525 nm). Data acquisition and processing were performed using CytExpert software (version 2.4.0.28; Beckman Coulter, Indianapolis, IN, USA).
On the technique in general: In flow cytometry, cells or beads pass a laser one at a time.

The subject of another data set is P-gp. The arrangement: method as in PMID 40939538. The note with it: non-small cell lung carcinoma sensitive and MDR P-gp-overexpressing cells ref 23; cited from earlier work.
The next data set has as its target T1, P-gp (U87-TxR cells) (Homo sapiens, UniProt P08183).
T1 construct: Studies were carried out with 2, 5, and TQ in U87-TxR cells with P-gp overexpression; endogenous in cells; host or cells: U87-TxR (paclitaxel-selected from U87)
Briefly: Rhodamine 123 accumulation assay. The class given is cell-based. The note with it: highest concentration, 30 min. The protocol: Studies were carried out with 2, 5, and TQ in U87-TxR cells with P-gp overexpression. Sensitive U87 cells were used as a positive control for Rho 123 accumulation. U87-TxR cells were seeded in 6-well plates at a density of 100,000 cells/well and incubated overnight. Then, the cells were treated with 1 μM and 2 μM of compounds 2 and 5 for 24 h, 48 h, and 72 h. Thereafter, cells were incubated with 2 μM Rho 123 for an additional 30 min at 37 °C in 5% CO2. In another experimental setting, 2 μM Rho123 was simultaneously applied with increasing concentrations of 2 or 5 (1 μM, 2 μM, and 4 μM) for 30 min. At the end of the accumulation period, the samples were washed twice, resuspended in 1 mL of cold PBS, and analyzed using a CytoFLEX flow cytometer (Beckman Coulter, Indianapolis, IN, USA). The fluorescence was read in a green fluorescence channel (525 nm). At least 10, 000 events were assayed for each sample. Data were analyzed using CytExpert 2.4.0.28 software (Beckman Coulter, Indianapolis, IN, USA).

Data set [2] relates to antioxidant-related gene mRNA in U87 cells. Briefly: RT-qPCR of oxidative-stress-related genes, U87. The class given is cell-based, human. To be noted: U87, 4 µM, 24 h; for increase in GPX1 mRNA expression: relative to untreated control. The protocol: Prior to RNA isolation, U87 and U87-TxR cell were treated with 4 μM 2 and 5 for 24 h. TRIzol® Reagent was used to isolate total RNA according to manufacturer’s instructions. RNA concentration was determined with NanoPhotometer N60 (Implen GmbH, Munchen, Germany). Quality was determined using electrophoresis on a 1.3% agarose gel. Reverse transcription reaction was carried out using High-Capacity cDNA Reverse Transcription Kit with RNase Inhibitor.
Quantitative RT-PCR (RT-qPCR) was performed to evaluate mRNA expression levels of CAT, GSR, SOD2, GPX1, GPX4, GST, TRX1, and TRXR1, with ACTB used as the reference gene. Reactions were carried out using Maxima SYBR Green/ROX qPCR Master Mix (Thermo Fisher Scientific, Waltham, MA, USA) in the QuantStudio™ 3 Real-Time PCR System (Applied Biosystems by Thermo Fisher Scientific). Thermocycling conditions consisted of an initial incubation at 50 °C for 5 min, followed by denaturation at 95 °C for 10 min and then 40 cycles of amplification with denaturation at 95 °C for 15 s and annealing/extension at 60 °C for 60 s. Relative gene expression levels were calculated using the ΔΔCt method, normalizing target gene expression to ACTB. All reactions were performed in technical triplicates.
On the technique in general: Real-time PCR tracks product formation cycle by cycle.

The subject of data set [3] is mitochondrial membrane potential in U87 and U87-TxR cells. Kind of data set: TMRE mitochondrial membrane potential. It is filed as cell-based, human. The note with it: 4 µM, 24 h, both cell lines. The protocol: The cell-permeable fluorescent dye TMRE was used to evaluate mitochondrial membrane potential. TMRE selectively accumulates in active mitochondria with intact membrane potential. […] U87 and U87-TxR cells were seeded in 6-well plates at a density of 150,000 cells per well. After 24 h, cells were treated with 2 and 5 (4 µM) and incubated for an additional 24 h. After treatment, cells were trypsinized, resuspended in complete medium containing 500 nM TMRE, and incubated for 30 min at 37 °C in the dark. CCCP (10 µM) was used as a positive control for mitochondrial depolarization and added 30 min before staining. For each sample, at least 10,000 events were collected. TMRE was detected at […]. The results were calculated using CytExpert 2.4.0.28 software (Beckman Coulter, Indianapolis, IN, USA).

T1 sequence (P08183 whole entry): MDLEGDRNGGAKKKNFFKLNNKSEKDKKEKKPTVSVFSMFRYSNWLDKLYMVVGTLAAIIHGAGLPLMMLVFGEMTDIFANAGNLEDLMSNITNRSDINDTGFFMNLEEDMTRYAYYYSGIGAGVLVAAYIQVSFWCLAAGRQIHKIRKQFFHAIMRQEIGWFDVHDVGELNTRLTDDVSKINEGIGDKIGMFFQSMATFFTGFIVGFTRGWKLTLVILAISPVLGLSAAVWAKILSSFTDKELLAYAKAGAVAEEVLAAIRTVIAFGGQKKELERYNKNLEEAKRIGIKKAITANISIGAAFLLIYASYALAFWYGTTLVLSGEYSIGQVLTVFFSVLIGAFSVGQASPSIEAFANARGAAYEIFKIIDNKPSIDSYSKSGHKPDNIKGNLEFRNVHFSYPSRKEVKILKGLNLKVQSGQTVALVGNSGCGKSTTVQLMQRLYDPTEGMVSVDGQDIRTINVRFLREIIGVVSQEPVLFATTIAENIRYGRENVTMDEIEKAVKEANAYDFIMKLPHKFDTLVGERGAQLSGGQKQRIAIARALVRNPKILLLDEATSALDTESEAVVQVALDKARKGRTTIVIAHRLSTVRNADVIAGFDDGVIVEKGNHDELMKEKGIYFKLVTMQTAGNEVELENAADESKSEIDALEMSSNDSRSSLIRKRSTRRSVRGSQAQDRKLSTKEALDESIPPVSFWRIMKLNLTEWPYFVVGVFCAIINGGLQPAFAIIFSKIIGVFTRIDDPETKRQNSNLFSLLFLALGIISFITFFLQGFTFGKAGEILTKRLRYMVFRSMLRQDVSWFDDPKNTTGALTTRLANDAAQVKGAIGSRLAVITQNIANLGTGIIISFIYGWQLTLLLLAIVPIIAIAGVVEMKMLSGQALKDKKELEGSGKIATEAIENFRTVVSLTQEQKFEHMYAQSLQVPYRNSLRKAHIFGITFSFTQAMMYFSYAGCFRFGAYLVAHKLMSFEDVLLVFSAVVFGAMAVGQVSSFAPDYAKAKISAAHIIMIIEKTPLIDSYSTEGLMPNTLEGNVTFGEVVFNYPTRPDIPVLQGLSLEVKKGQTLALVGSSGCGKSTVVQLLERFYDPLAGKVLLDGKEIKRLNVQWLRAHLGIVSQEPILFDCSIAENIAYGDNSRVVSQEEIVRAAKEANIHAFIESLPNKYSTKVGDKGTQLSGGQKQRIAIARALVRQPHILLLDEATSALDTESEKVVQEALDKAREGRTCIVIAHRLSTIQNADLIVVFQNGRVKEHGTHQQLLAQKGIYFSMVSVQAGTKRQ

Regarding `CC1(C)CCC[C@]2(C)[C@@H](CC[C@@](C)(O)/C=C/c3ccc(CNCCCCCCCCNCC45CC6CC(CC(C6)C4)C5)s3)[C@](C)(O)CC[C@@H]12` [Compound 2], the ASK1 protein levels entry in data set [1] is “increased”. Moreover, the P-gp interaction entry with P-gp is on record as “P-gp inhibitor”. Besides, on P-gp (U87-TxR cells), the “Rho 123 accumulation vs TQ (50 nM)” value is on record as “comparable to TQ”. In data set [2], the “CAT mRNA expression levels” value is on record as “remained unchanged”, the GSTP gene expression entry is “significantly increased”, the “TRX1 mRNA” value is listed as “significant downregulation” and the “increase in GPX1 mRNA expression” value stood at 1.8 fold. The “TMRE fluorescence (mitochondrial membrane potential)” value in data set [3] is on record as “decreased”.
Consider `CC1(C)CCC[C@]2(C)[C@@H](CC[C@@](C)(O)/C=C/c3ccc(CNCCCCCCCCNCC45CC6CC(CC(C6)C4)C5)o3)[C@](C)(O)CC[C@@H]12` [Compound 5], for which, in data set [1], the ASK1 protein levels result is reported as “increased”. Besides, in data set [1] (4 µM, not statistically significant), the ASK1 expression entry was “slightly increased”. In addition, the P-gp interaction result in the data set on P-gp is on record as “P-gp substrate”. Further, the “Rho 123 accumulation vs TQ (50 nM)” value on P-gp (U87-TxR cells) is recorded as “comparable to TQ”. For the same molecule, in data set [2], the “CAT mRNA expression levels” value is “remained unchanged”, the GSTP gene expression entry is listed as “significantly increased” and the “increase in GPX1 mRNA expression” value is listed as 2.2 fold. The “TMRE fluorescence (mitochondrial membrane potential)” value in data set [3] is recorded as “decreased”.

Values taken from PMC12735718, “Novel Adamantane–Sclareol Hybrids Exploit ROS Vulnerability to Overcome Multidrug-Resistance in Glioblastoma Cells” (Molecules, 2025).
